Assay results taken from patent US20050014849A1, “Antifungal phenylethylene” (priority 2001, published 2005).
In brackets after ≈: the same amount, converted by molar mass. Several values for one entry are separate records, joined by “and”; a condition that tells them apart may be missing. Equal values may be shown once.

What was measured:
[1] = tested on: Blastoschizomyces capitalus ATCC 10663; experiment: Broth macrodilution MIC/MFC; format: cell-based
Experimental: (§1) TMPN was screened against yeasts by the broth macrodilution assay according to the NCCLS [7]. Yeasts were suspended and diluted as recommended to yield final inocula ranging from 0.5-2.5×10^3 cfu/ml. Tests were performed in sterile 12 by 75 mm plastic tubes containing two-fold dilutions of TMPN in 0.165 M morpholinepropanesulfonic acid buffered RPMI 1640 medium (pH 7.0). One tube was again left drug free (but contained an equivalent volume of DMSO) for a turbidity control. Tubes were incubated without agitation at the appropriate temperature (see Fungal Strains section above). MICs were determined after 72 h for Cryptococcus and after 48 h for other yeast genera. The MIC was defined as the lowest concentration of TMPN that inhibited all visible growth of the test organism (optically clear).
(§2) Minimum fungicidal concentrations (MFCs) were determined by subculturing 0.1 ml from each tube with no visible growth in the MIC broth macrodilution series onto the appropriate drug-free plates (see Fungal Strains section above).

[2] = tested on: Candida albicans (7); experiment: Broth macrodilution MIC/MFC; format: cell-based
Experimental: as §1, §2

[3] = tested on: Filobasidium uniguttulatum ATCC 24227; experiment: Broth macrodilution MIC/MFC; format: cell-based
Experimental: as §1, §2

[4] = tested on: Fluconazole-resistant Cryptococcus neoformans (4); experiment: Broth macrodilution MIC/MFC; format: cell-based
Experimental: as §1, §2

[5] = tested on: K. apiculate ATCC 9774; experiment: Broth macrodilution MIC/MFC; format: cell-based
Experimental: as §1, §2

[6] = tested on: Kluyveromyces marxianus ATCC 365534; experiment: Broth macrodilution MIC/MFC; format: cell-based
Experimental: as §1, §2

[7] = tested on: Rhodotorula mucilaginosa ATCC 9449; experiment: Broth macrodilution MIC/MFC; format: cell-based
Experimental: as §1, §2

[8] = tested on: Trichosporon cutaneum ATCC 28592; experiment: Broth macrodilution MIC/MFC; format: cell-based
Experimental: as §1, §2

[9] = tested on: C. albicans ATCC 10231; experiment: Broth macrodilution MIC/MFC; format: cell-based, Candida albicans
Experimental: as §1, §2

[10] = tested on: C. albicans ATCC 14053; experiment: Broth macrodilution MIC/MFC; format: cell-based, Candida albicans
Experimental: as §1, §2

[11] = tested on: C. albicans ATCC 60193; experiment: Broth macrodilution MIC/MFC; format: cell-based, Candida albicans
Experimental: as §1, §2

[12] = tested on: Flucytosine-resistant C. albicans ATCC 32354; experiment: Broth macrodilution MIC/MFC; format: cell-based, Candida albicans
Experimental: as §1, §2

[13] = tested on: Ketoconazole-resistant C. albicans ATCC 64124; experiment: Broth macrodilution MIC/MFC; format: cell-based, Candida albicans
Experimental: as §1, §2

[14] = tested on: C. guilliermondii (9); experiment: Broth macrodilution MIC/MFC; format: cell-based, Candida guilliermondii
Experimental: as §1, §2

[15] = tested on: Paecilomyces lilacinus (1); experiment: Broth macrodilution MIC/MFC, filamentous fungi; format: cell-based
Experimental: (§3) Susceptibility testing of filamentous fungi was also conducted. Broth macrodilution susceptibility testing of P. lilacinus, Rhizopus spp. and Aspergillus spp. was performed in accordance with a proposed standardized procedure with slight modification. To induce conidium and sporangiospore formation, fungi were grown on PDA slants at 35° C. for 6 days (P. lilacinus, Rhizopus spp., all Aspergillus species except A. nidulans) or 3 days (A. nidulans). Fungal slants were covered with sterile 0.85% NaCl (P. lilacinus, Rhizopus spp., all Aspergillus species except A. nidulans) or 0.05% Tween 80 (A. nidulans), and suspensions were made by gently probing the colonies with the tip of a sterile Pasteur pipette. The resulting mixture of hyphal fragments and conidia or sporangiospores was withdrawn and transferred to a sterile clear microcentrifuge tube, and heavy particles were allowed to settle for 10 min. The upper homogenous suspension was transferred to a sterile microcentrifuge tube, vortexed for 15 s, adjusted spectrophotometrically, and diluted in sterile 0.165 M MOPS-buffered RPMI medium, pH 7.0, to yield final inocula ranging from 0.5-2.5×10^3 cfu/ml. Susceptibility to TMPN was then determined by broth macrodilution as described above for yeast isolates. MICs were read after 48 h The MIC was defined as the lowest concentration of TMPN that inhibited all visible growth of the test organism (optically clear).
as §2

[16] = tested on: Rhizopus oligosporus ATCC 22959; experiment: Broth macrodilution MIC/MFC, filamentous fungi; format: cell-based
Experimental: as §3, §2

[17] = tested on: T. inkin (ATCC 18020); experiment: Frequency of occurrence of spontaneous mutants; format: cell-based, Trichosporon inkin; conditions: four times the broth macrodilution MIC
Experimental: Determination of the frequency of occurrence of spontaneous mutants was performed as previously described. Overnight cultures of C neoformans (ATCC 90112), C. albicans (ATCC 90028) and Trichosporon inkin (ATCC 18020) were diluted to an OD530 nm=0.3. 0.1 ml of each preparation was spread onto SDA plates containing four or eight times the broth macrodilution MIC of TMPN. The starting inoculum for each organism was also diluted and plated onto drug-free SDA plates for determination of cfu/ml. After a 48 h incubation at the appropriate temperature (see Fungal Strains section above), the number of colonies on drug-supplemented SDA was counted. The frequency of occurrence of spontaneous mutants was calculated by dividing the number of colonies on drug-containing plates by the number of colonies in the inoculum. When no colonies were visualized on drug-containing plates, the calculation was (<) 1 colony divided by the number of colonies in the inoculum.

[18] = tested on: T1, bovine brain tubulin; experiment: Tubulin polymerization assay; format: biochemical; conditions: 1 mg/ml tubulin; 20 min incubation at 30° C.
T1 construct: Electrophoretically homogeneous bovine brain tubulin [12]
Experimental: Electrophoretically homogeneous bovine brain tubulin [12] was used in studies to evaluate the effects of TMPN on in vitro tubulin polymerization and the binding of […] (Dupont-NEN) to tubulin. These studies were performed as described previously. In the polymerization assay, varying drug concentrations were added to 1 mg/ml tubulin to determine the amount of drug that would inhibit the extent of the reaction by 50% (20 min incubation at 30° C.) (IC50 value). In the colchicine binding assay, the effect of varying drug concentrations on the binding of 2 μg/ml colchicine to 100 μg/ml tubulin was measured after 10 min at 37° C. (control reaction about 50% complete).

COc1cc(C=C[N+](=O)[O-])cc(OC)c1OC [TMPN, 1-(3′,4′,5′-trimethoxyphenyl)-2-nitro-ethylene]
MFC Range [1]: 32 µg/mL (≈ 134 µM) | MIC Range [1]: 8 µg/mL (≈ 33.4 µM) | share of isolates with MFC/MIC ratio <2 ([2]; C. albicans clinical isolates): 71% | MIC Range ([2]; Candida albicans (7)): 4 to 32 µg/mL | share of isolates with MFC/MIC ratio ≦2 ([2]; Candida albicans clinical isolates): 71% | MFC Range [3]: 2 µg/mL (≈ 8.36 µM) | MIC Range [3]: 0.5 µg/mL (≈ 2.09 µM) | MFC Range [4]: 4 to 16 µg/mL | MIC Range [4]: 4 to 8 µg/mL | MFC Range [5]: 2 µg/mL (≈ 8.36 µM) | MIC Range [5]: 1 µg/mL (≈ 4.18 µM) | MFC Range [6]: 4 µg/mL (≈ 16.7 µM) | MIC Range [6]: 4 µg/mL (≈ 16.7 µM) | MFC Range [7]: 8 µg/mL (≈ 33.4 µM) | MIC Range [7]: 4 µg/mL (≈ 16.7 µM) | MFC Range [8]: 8 µg/mL (≈ 33.4 µM) | MIC Range [8]: 4 µg/mL (≈ 16.7 µM) | MFC Range [9]: 8 µg/mL (≈ 33.4 µM) | MIC Range [9]: 8 µg/mL (≈ 33.4 µM) | MFC Range [10]: 16 µg/mL (≈ 66.9 µM) | MIC Range [10]: 16 µg/mL (≈ 66.9 µM) | MFC Range [11]: 16 µg/mL (≈ 66.9 µM) | MIC Range [11]: 16 µg/mL (≈ 66.9 µM) | MFC Range [12]: 16 µg/mL (≈ 66.9 µM) | MIC Range [12]: 16 µg/mL (≈ 66.9 µM) | MFC Range [13]: 32 µg/mL (≈ 134 µM) | MIC Range [13]: 16 µg/mL (≈ 66.9 µM) | MFC Range [14]: >64 µg/mL | MFC Range [15]: 64 µg/mL (≈ 268 µM) | MIC Range [15]: 32 µg/mL (≈ 134 µM) | MFC Range [16]: >64 µg/mL | MIC Range [16]: 8 µg/mL (≈ 33.4 µM) | frequency of occurrence of single-step resistant mutants [17]: ≤ 10^−6 | IC50 for inhibition of the extent of tubulin assembly [18]: 0.60 µg/mL and 0.60 ± 0.07 µg/mL
